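Assay format: 96-well plates, 48-hour exposure. The concentration for 50% growth inhibition is given as GI50. TGI marks complete inhibition of growth.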
Legend:
Assay in all cases: NCI-60 cell line screen, 48 h
UO-31 renal = test system: UO-31 renal
CCRF-CEM leukemia = test system: CCRF-CEM leukemia
ACHN renal = test system: ACHN renal
IGROV1 ovarian = test system: IGROV1 ovarian
UACC-257 melanoma = test system: UACC-257 melanoma
SK-MEL-2 melanoma = test system: SK-MEL-2 melanoma
LOX IMVI melanoma = test system: LOX IMVI melanoma
T-47D breast = test system: T-47D breast
SK-MEL-28 melanoma = test system: SK-MEL-28 melanoma
BT-549 breast = test system: BT-549 breast
HT29 colon = test system: HT29 colon
NCI-H522 lung = test system: NCI-H522 lung
UACC-62 melanoma = test system: UACC-62 melanoma
SR leukemia = test system: SR leukemia
MDA-MB-468 breast = test system: MDA-MB-468 breast
SF-295 CNS = test system: SF-295 CNS
SK-MEL-5 melanoma = test system: SK-MEL-5 melanoma
MOLT-4 leukemia = test system: MOLT-4 leukemia
HCC-2998 colon = test system: HCC-2998 colon
M14 melanoma = test system: M14 melanoma
EKVX NSCLC = test system: EKVX NSCLC
KM12 colon = test system: KM12 colon
HS 578T breast = test system: HS 578T breast
DU-145 prostate = test system: DU-145 prostate
MDA-MB-231 breast = test system: MDA-MB-231 breast
NCI-H23 lung = test system: NCI-H23 lung
HOP-92 NSCLC = test system: HOP-92 NSCLC
A498 renal = test system: A498 renal
SK-OV-3 ovarian = test system: SK-OV-3 ovarian
SN12C renal = test system: SN12C renal
SNB-75 CNS = test system: SNB-75 CNS
U251 CNS = test system: U251 CNS
OVCAR-5 ovarian = test system: OVCAR-5 ovarian
SW-620 colon = test system: SW-620 colon
SF-539 CNS = test system: SF-539 CNS
NCI-H226 lung = test system: NCI-H226 lung
K-562 leukemia = test system: K-562 leukemia
RPMI-8226 leukemia = test system: RPMI-8226 leukemia
CAKI-1 renal = test system: CAKI-1 renal
HL-60(TB) leukemia = test system: HL-60(TB) leukemia
NCI-H460 lung = test system: NCI-H460 lung
OVCAR-3 ovarian = test system: OVCAR-3 ovarian
HOP-62 NSCLC = test system: HOP-62 NSCLC
786-0 renal = test system: 786-0 renal
HCT-116 colon = test system: HCT-116 colon
MALME-3M melanoma = test system: MALME-3M melanoma
HCT-15 colon = test system: HCT-15 colon

SMILES: C=Cn1cc(C(=O)O)c(=O)c2cc(F)c(N3CCN(c4nccc(-c5nccs5)n4)CC3)cc21
- GI50 (UO-31 renal): 25.9 nM
- TGI (UO-31 renal): 782 nM
- GI50 (CCRF-CEM leukemia): 61.6 nM
- TGI (CCRF-CEM leukemia): > 100 µM
- GI50 (ACHN renal): 16.6 nM
- TGI (ACHN renal): 1170 nM
- GI50 (IGROV1 ovarian): 41.8 nM
- TGI (IGROV1 ovarian): 1510 nM
- GI50 (UACC-257 melanoma): 172 nM
- TGI (UACC-257 melanoma): 2900 nM
- GI50 (SK-MEL-2 melanoma): 77.1 nM
- TGI (SK-MEL-2 melanoma): 1260 nM
- GI50 (LOX IMVI melanoma): 35 nM
- TGI (LOX IMVI melanoma): 195 nM
- GI50 (T-47D breast): 118 nM
- TGI (T-47D breast): > 100 µM
- GI50 (SK-MEL-28 melanoma): 96.4 nM
- TGI (SK-MEL-28 melanoma): 1260 nM
- GI50 (BT-549 breast): 194 nM
- TGI (BT-549 breast): 1560 nM
- GI50 (HT29 colon): 46.4 nM
- TGI (HT29 colon): 2490 nM
- GI50 (NCI-H522 lung): 66.7 nM
- TGI (NCI-H522 lung): 1280 nM
- GI50 (UACC-62 melanoma): 24.6 nM
- TGI (UACC-62 melanoma): 175 nM
- TGI (SR leukemia): 1530 nM
- GI50 (MDA-MB-468 breast): 109 nM
- TGI (MDA-MB-468 breast): 1230 nM
- GI50 (SF-295 CNS): 29.1 nM
- TGI (SF-295 CNS): 1550 nM
- GI50 (SK-MEL-5 melanoma): 36.4 nM
- TGI (SK-MEL-5 melanoma): 576 nM
- GI50 (MOLT-4 leukemia): 40.4 nM
- TGI (MOLT-4 leukemia): 2520 nM
- GI50 (HCC-2998 colon): 80.4 nM
- TGI (HCC-2998 colon): 2030 nM
- GI50 (M14 melanoma): 238 nM
- TGI (M14 melanoma): 3.38 µM
- GI50 (EKVX NSCLC): 283 nM
- TGI (EKVX NSCLC): 4.3 µM
- GI50 (KM12 colon): 78.5 nM
- TGI (KM12 colon): 2670 nM
- GI50 (HS 578T breast): 86.5 nM
- TGI (HS 578T breast): 1490 nM
- GI50 (DU-145 prostate): 145 nM
- TGI (DU-145 prostate): 4.08 µM
- GI50 (MDA-MB-231 breast): 345 nM
- TGI (MDA-MB-231 breast): 3.44 µM
- GI50 (NCI-H23 lung): 55.8 nM
- TGI (NCI-H23 lung): 1270 nM
- GI50 (HOP-92 NSCLC): 210 nM
- TGI (HOP-92 NSCLC): 1660 nM
- GI50 (A498 renal): 55.4 nM
- TGI (A498 renal): 2780 nM
- GI50 (SK-OV-3 ovarian): 208 nM
- TGI (SK-OV-3 ovarian): 3.79 µM
- GI50 (SN12C renal): 119 nM
- TGI (SN12C renal): 2530 nM
- GI50 (SNB-75 CNS): 115 nM
- TGI (SNB-75 CNS): 1630 nM
- GI50 (U251 CNS): 85.8 nM
- TGI (U251 CNS): > 100 µM
- GI50 (OVCAR-5 ovarian): 234 nM
- TGI (OVCAR-5 ovarian): 3.37 µM
- GI50 (SW-620 colon): 23.4 nM
- TGI (SW-620 colon): 2690 nM
- GI50 (SF-539 CNS): 72.8 nM
- TGI (SF-539 CNS): 2310 nM
- GI50 (NCI-H226 lung): 60.7 nM
- TGI (NCI-H226 lung): 517 nM
- GI50 (K-562 leukemia): 61.4 nM
- TGI (K-562 leukemia): > 100 µM
- GI50 (RPMI-8226 leukemia): 62 nM
- TGI (RPMI-8226 leukemia): 1450 nM
- GI50 (CAKI-1 renal): 23.7 nM
- TGI (CAKI-1 renal): 839 nM
- GI50 (HL-60(TB) leukemia): 209 nM
- TGI (HL-60(TB) leukemia): 2950 nM
- GI50 (NCI-H460 lung): 21.5 nM
- TGI (NCI-H460 lung): 1390 nM
- GI50 (OVCAR-3 ovarian): 88.6 nM
- TGI (OVCAR-3 ovarian): 2770 nM
- GI50 (HOP-62 NSCLC): 139 nM
- TGI (HOP-62 NSCLC): 3.69 µM
- GI50 (786-0 renal): 225 nM
- TGI (786-0 renal): 2920 nM
- GI50 (HCT-116 colon): 30.4 nM
- TGI (HCT-116 colon): 1420 nM
- GI50 (MALME-3M melanoma): 50.6 nM
- TGI (MALME-3M melanoma): 1330 nM
- GI50 (HCT-15 colon): 40.5 nM
- TGI (HCT-15 colon): 1600 nM
